± gives the expanded uncertainty stated by the source.
Details: Liquid; for viscosity: Concentric cylinders viscometry

Work on `CC(=O)[O-].CCCCn1cc[n+](C)c1` [1-butyl-3-methylimidazolium acetate] yielded a viscosity (293.15 K, 101.33 kPa) of 592.3 ± 33 mPa·s, a mass density (293.15 K, 101.33 kPa, Vibrating tube method) of 1053.8 ± 1 kg/m3 and a viscosity (303.15 K, 101.33 kPa) of 274.1 ± 14 mPa·s. The mass density (303.15 K, 101.33 kPa, Vibrating tube method) was 1047.4 ± 1 kg/m3, the mass density (311.4 K, 10000 kPa, Bellows volumetry) was 1046.7 ± 1.4 kg/m3 and the mass density (311.4 K, 20000 kPa, Bellows volumetry) was 1050.8 ± 1.4 kg/m3. The mass density (311.4 K, 30000 kPa, Bellows volumetry) was 1054.8 ± 1.4 kg/m3, the mass density (311.4 K, 40000 kPa, Bellows volumetry) was 1058.6 ± 1.4 kg/m3 and the mass density (311.4 K, 50000 kPa, Bellows volumetry) was 1062.3 ± 1.4 kg/m3. The mass density (311.4 K, 60000 kPa, Bellows volumetry) was 1065.8 ± 1.4 kg/m3, the mass density (311.4 K, 70000 kPa, Bellows volumetry) was 1069.3 ± 1.4 kg/m3 and the mass density (311.4 K, 80000 kPa, Bellows volumetry) was 1072.7 ± 1.4 kg/m3. It also gave a mass density (311.4 K, 90000 kPa, Bellows volumetry) of 1076 ± 1.4 kg/m3, a mass density (311.4 K, 100000 kPa, Bellows volumetry) of 1079 ± 1.4 kg/m3 and a mass density (311.4 K, 110000 kPa, Bellows volumetry) of 1082.1 ± 1.4 kg/m3. It also gave a mass density (311.4 K, 120000 kPa, Bellows volumetry) of 1085.1 ± 1.4 kg/m3, a mass density (311.4 K, 130000 kPa, Bellows volumetry) of 1088.1 ± 1.4 kg/m3 and a mass density (311.4 K, 140000 kPa, Bellows volumetry) of 1090.9 ± 1.4 kg/m3. It also gave a mass density (311.4 K, 150000 kPa, Bellows volumetry) of 1093.7 ± 1.4 kg/m3, a mass density (311.4 K, 160000 kPa, Bellows volumetry) of 1096.5 ± 1.4 kg/m3 and a mass density (311.4 K, 170000 kPa, Bellows volumetry) of 1099.1 ± 1.4 kg/m3. For the same compound, the mass density (311.4 K, 180000 kPa, Bellows volumetry) was 1101.9 ± 1.4 kg/m3, the mass density (311.4 K, 190000 kPa, Bellows volumetry) was 1104.5 ± 1.4 kg/m3 and the mass density (311.4 K, 200000 kPa, Bellows volumetry) was 1107.1 ± 1.4 kg/m3. The viscosity (313.15 K, 101.33 kPa) was 142.4 ± 6.9 mPa·s, the mass density (313.15 K, 101.33 kPa, Vibrating tube method) was 1041.4 ± 1 kg/m3 and the viscosity (323.15 K, 101.33 kPa) was 81.88 ± 3.9 mPa·s. It also gave a mass density (323.15 K, 101.33 kPa, Vibrating tube method) of 1035.4 ± 1 kg/m3, a mass density (331.1 K, 10000 kPa, Bellows volumetry) of 1034.7 ± 1.4 kg/m3 and a mass density (331.1 K, 20000 kPa, Bellows volumetry) of 1039.1 ± 1.4 kg/m3. For the same compound, the mass density (331.1 K, 30000 kPa, Bellows volumetry) was 1043.3 ± 1.4 kg/m3, the mass density (331.1 K, 40000 kPa, Bellows volumetry) was 1047.3 ± 1.4 kg/m3 and the mass density (331.1 K, 50000 kPa, Bellows volumetry) was 1051.2 ± 1.4 kg/m3. For the same compound, the mass density (331.1 K, 60000 kPa, Bellows volumetry) was 1054.9 ± 1.4 kg/m3, the mass density (331.1 K, 70000 kPa, Bellows volumetry) was 1058.5 ± 1.4 kg/m3 and the mass density (331.1 K, 80000 kPa, Bellows volumetry) was 1062.1 ± 1.4 kg/m3. For the same compound, the mass density (331.1 K, 90000 kPa, Bellows volumetry) was 1065.2 ± 1.4 kg/m3, the mass density (331.1 K, 100000 kPa, Bellows volumetry) was 1068.7 ± 1.4 kg/m3 and the mass density (331.1 K, 110000 kPa, Bellows volumetry) was 1071.9 ± 1.4 kg/m3. It also gave a mass density (331.1 K, 120000 kPa, Bellows volumetry) of 1075 ± 1.4 kg/m3, a mass density (331.1 K, 130000 kPa, Bellows volumetry) of 1078.2 ± 1.4 kg/m3 and a mass density (331.1 K, 140000 kPa, Bellows volumetry) of 1081.1 ± 1.4 kg/m3. The mass density (331.1 K, 150000 kPa, Bellows volumetry) was 1084 ± 1.4 kg/m3, the mass density (331.1 K, 160000 kPa, Bellows volumetry) was 1086.8 ± 1.4 kg/m3 and the mass density (331.1 K, 170000 kPa, Bellows volumetry) was 1089.6 ± 1.4 kg/m3. The mass density (331.1 K, 180000 kPa, Bellows volumetry) was 1092.4 ± 1.4 kg/m3, the mass density (331.1 K, 190000 kPa, Bellows volumetry) was 1095.1 ± 1.4 kg/m3 and the mass density (331.1 K, 200000 kPa, Bellows volumetry) was 1097.7 ± 1.4 kg/m3. For the same compound, the viscosity (333.15 K, 101.33 kPa) was 51.11 ± 2.4 mPa·s, the mass density (333.15 K, 101.33 kPa, Vibrating tube method) was 1029.5 ± 1 kg/m3 and the viscosity (343.15 K, 101.33 kPa) was 33.65 ± 1.6 mPa·s. It also gave a mass density (343.15 K, 101.33 kPa, Vibrating tube method) of 1023.7 ± 1 kg/m3, a mass density (351.3 K, 10000 kPa, Bellows volumetry) of 1023.2 ± 1.4 kg/m3 and a mass density (351.3 K, 20000 kPa, Bellows volumetry) of 1027.7 ± 1.4 kg/m3. For the same compound, the mass density (351.3 K, 30000 kPa, Bellows volumetry) was 1032.1 ± 1.4 kg/m3, the mass density (351.3 K, 40000 kPa, Bellows volumetry) was 1036.4 ± 1.4 kg/m3 and the mass density (351.3 K, 50000 kPa, Bellows volumetry) was 1040.4 ± 1.4 kg/m3. It also gave a mass density (351.3 K, 60000 kPa, Bellows volumetry) of 1044.3 ± 1.4 kg/m3, a mass density (351.3 K, 70000 kPa, Bellows volumetry) of 1048 ± 1.4 kg/m3 and a mass density (351.3 K, 80000 kPa, Bellows volumetry) of 1051.6 ± 1.4 kg/m3. For the same compound, the mass density (351.3 K, 90000 kPa, Bellows volumetry) was 1055 ± 1.4 kg/m3, the mass density (351.3 K, 100000 kPa, Bellows volumetry) was 1058.4 ± 1.4 kg/m3 and the mass density (351.3 K, 110000 kPa, Bellows volumetry) was 1061.7 ± 1.4 kg/m3. The mass density (351.3 K, 120000 kPa, Bellows volumetry) was 1065 ± 1.4 kg/m3, the mass density (351.3 K, 130000 kPa, Bellows volumetry) was 1068.1 ± 1.4 kg/m3 and the mass density (351.3 K, 140000 kPa, Bellows volumetry) was 1071.2 ± 1.4 kg/m3. The mass density (351.3 K, 150000 kPa, Bellows volumetry) was 1074.3 ± 1.4 kg/m3, the mass density (351.3 K, 160000 kPa, Bellows volumetry) was 1077.3 ± 1.4 kg/m3 and the mass density (351.3 K, 170000 kPa, Bellows volumetry) was 1080.2 ± 1.4 kg/m3. The mass density (351.3 K, 180000 kPa, Bellows volumetry) was 1083 ± 1.4 kg/m3, the mass density (351.3 K, 190000 kPa, Bellows volumetry) was 1086 ± 1.4 kg/m3 and the mass density (351.3 K, 200000 kPa, Bellows volumetry) was 1088.5 ± 1.4 kg/m3. It also gave a viscosity (353.15 K, 101.33 kPa) of 23.51 ± 1.1 mPa·s, a mass density (353.15 K, 101.33 kPa, Vibrating tube method) of 1017.9 ± 1 kg/m3 and a viscosity (363.15 K, 101.33 kPa) of 17.09 ± 0.8 mPa·s. It also gave a mass density (363.15 K, 101.33 kPa, Vibrating tube method) of 1012 ± 1 kg/m3, a mass density (371.3 K, 10000 kPa, Bellows volumetry) of 1011.7 ± 1.4 kg/m3 and a mass density (371.3 K, 20000 kPa, Bellows volumetry) of 1016.5 ± 1.4 kg/m3. For the same compound, the mass density (371.3 K, 30000 kPa, Bellows volumetry) was 1021.2 ± 1.4 kg/m3, the mass density (371.3 K, 40000 kPa, Bellows volumetry) was 1025.5 ± 1.4 kg/m3 and the mass density (371.3 K, 50000 kPa, Bellows volumetry) was 1029.6 ± 1.4 kg/m3. It also gave a mass density (371.3 K, 60000 kPa, Bellows volumetry) of 1033.8 ± 1.4 kg/m3, a mass density (371.3 K, 70000 kPa, Bellows volumetry) of 1037.7 ± 1.4 kg/m3 and a mass density (371.3 K, 80000 kPa, Bellows volumetry) of 1041.5 ± 1.4 kg/m3. The mass density (371.3 K, 90000 kPa, Bellows volumetry) was 1045 ± 1.4 kg/m3, the mass density (371.3 K, 100000 kPa, Bellows volumetry) was 1048.5 ± 1.4 kg/m3 and the mass density (371.3 K, 110000 kPa, Bellows volumetry) was 1051.9 ± 1.4 kg/m3. For the same compound, the mass density (371.3 K, 120000 kPa, Bellows volumetry) was 1055.3 ± 1.4 kg/m3, the mass density (371.3 K, 130000 kPa, Bellows volumetry) was 1058.6 ± 1.4 kg/m3 and the mass density (371.3 K, 140000 kPa, Bellows volumetry) was 1061.8 ± 1.4 kg/m3. It also gave a mass density (371.3 K, 150000 kPa, Bellows volumetry) of 1064.9 ± 1.4 kg/m3, a mass density (371.3 K, 160000 kPa, Bellows volumetry) of 1067.8 ± 1.4 kg/m3 and a mass density (371.3 K, 170000 kPa, Bellows volumetry) of 1071 ± 1.4 kg/m3. It also gave a mass density (371.3 K, 180000 kPa, Bellows volumetry) of 1073.9 ± 1.4 kg/m3, a mass density (371.3 K, 190000 kPa, Bellows volumetry) of 1076.8 ± 1.4 kg/m3 and a mass density (371.3 K, 200000 kPa, Bellows volumetry) of 1079.5 ± 1.4 kg/m3. The viscosity (373.15 K, 101.33 kPa) was 12.93 ± 0.6 mPa·s and the mass density (373.15 K, 101.33 kPa, Vibrating tube method) was 1006.1 ± 1 kg/m3.

From the NIST ThermoML archive (doi:10.1021/je5009679)
